Literature values, collected in patent US20240285562A1, “USE OF (S)-3-AMINO-4-(DIFLUOROMETHYLENYL) CYCLOPENT-1-ENE-1-CARBOXYLIC ACID IN THE TREATMENT OF MULTIPLE SCLEROSIS” (Ovid Therapeutics Inc., priority 2023, published 2024).

Assays:
[1] = target: aspartate aminotransferase (Asp-AT)
[2] = target: alanine amidotransferase (Ala-AT)
OAT = target: T1, OAT (Homo sapiens, UniProt P04181)
T1 sequence (P04181 36-439 limits assumed): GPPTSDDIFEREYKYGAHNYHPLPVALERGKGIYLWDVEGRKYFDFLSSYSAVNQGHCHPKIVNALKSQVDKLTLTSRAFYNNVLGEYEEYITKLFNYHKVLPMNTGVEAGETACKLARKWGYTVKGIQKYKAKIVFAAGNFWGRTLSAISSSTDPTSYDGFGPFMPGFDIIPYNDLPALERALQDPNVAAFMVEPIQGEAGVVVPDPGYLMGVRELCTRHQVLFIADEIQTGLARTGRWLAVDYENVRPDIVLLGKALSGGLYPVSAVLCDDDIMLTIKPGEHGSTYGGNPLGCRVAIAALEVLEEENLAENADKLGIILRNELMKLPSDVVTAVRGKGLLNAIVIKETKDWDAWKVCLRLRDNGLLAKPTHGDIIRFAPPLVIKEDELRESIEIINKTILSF

[3] = tested on: autoimmune response in EAE; conditions: oral or parenteral administration, murine EAE

SMILES: N[C@H]1C=C(C(=O)O)CC1=C(F)F [(S)-3-amino-4-(difluoromethylenyl)cyclopent-1-ene-1-carboxylic acid]
- IC50 ([1]; reversible inhibition): > 4000 µM
- IC50 ([2]; reversible inhibition): > 4000 µM
- times more efficient an inactivator of OAT than CPP-115 (OAT; ratio of kinact/KI versus CPP-115): 9.0 times

SMILES: N[C@H]1C[C@@H](C(=O)O)CC1=C(F)F [CPP-115, (1S,3S)-3-amino+difluoromethylenyl-1-cyclopentanoic acid, reference compound]
- inactivation or inhibition of off-target enzyme [1]: not to inactivate or inhibit
- inactivation or inhibition of off-target enzyme [2]: not to inactivate or inhibit
- Ki (OAT; OAT inactivation): 116 µM

SMILES: NCCCC(=O)O [GABA, gamma-aminobutyric acid]
- reduction of the damaging autoimmune response [3]: ineffective
